Among the data in PubChem BioAssay AID720726 (Broad Institute, 2013) are AC40 values, retold here.

This experiment deals with Huh7 miR-122 levels, qRT-PCR, 48 h. Description: activators raising endogenous miR-122 levels, dose response, orthogonal assay, cell-based, Huh7, qRT-PCR, dry powder (AID 720726).

Consider `COCC(=O)N(C)C[C@H]1Oc2cc(-c3ccccc3F)ccc2S(=O)(=O)N([C@H](C)CO)C[C@H]1C`, for which the AC40 is 18.9 µM.
